PMC5667785 (International Journal of Nanomedicine, 2017)

What was measured:
[1] = Cur stability in Krebs–Ringer intestinal circulation-perfusion solution; type: physicochemical; settings: 2 hours at 37°C
liver microsomal enzymes = settings: within 30 minutes ref 14; cited from earlier work
[2] = Critical micelle concentration by surface-tension measurements; type: physicochemical

Row | Compound | Cur stability in the KR solution [1] | Biotransformation of Cur to sulfate or glucuronide conjugates (liver microsomal enzymes) [%] | Critical micelle concentration [2] [µg/mL]
1 | COc1cc(/C=C/C(=O)CC(=O)/C=C/c2ccc(O)c(OC)c2)ccc1O [Cur, Curcumin] | neither degraded | 90 | 
2 | TCA-PEG100-monostearate [S100-TCA] |  |  | 15.86 ± 0.53
